Measurements: publication PMC6792169 (ACS Medicinal Chemistry Letters, 2019)
Like-named read-outs stand apart in the source and are kept apart here.

Experiments:
44 tumor cell lines [1] = settings: matched 44 cell line panel; cited from earlier work
OVCAR-3 xenograft [2] = settings: 50 mg/kg p.o. QD for 28 days, day 45; cited from earlier work
66 cancer cell lines = test: NTRC Oncolines proliferation, panel mean; assay type: cell-based; settings: read-out: mean half-maximal growth inhibition (GI50)
44 tumor cell lines [3] = test: NTRC Oncolines proliferation, panel mean; assay type: cell-based; settings: 4-4 cell
PI3Kα = PI3Kα (Homo sapiens, UniProt P42336); test: DiscoverX KdELECT; settings: Inhibitor binding constant Kd PI3Kα, first PI3K column of Table S2
PI3Kα, sequence (P42336 whole entry): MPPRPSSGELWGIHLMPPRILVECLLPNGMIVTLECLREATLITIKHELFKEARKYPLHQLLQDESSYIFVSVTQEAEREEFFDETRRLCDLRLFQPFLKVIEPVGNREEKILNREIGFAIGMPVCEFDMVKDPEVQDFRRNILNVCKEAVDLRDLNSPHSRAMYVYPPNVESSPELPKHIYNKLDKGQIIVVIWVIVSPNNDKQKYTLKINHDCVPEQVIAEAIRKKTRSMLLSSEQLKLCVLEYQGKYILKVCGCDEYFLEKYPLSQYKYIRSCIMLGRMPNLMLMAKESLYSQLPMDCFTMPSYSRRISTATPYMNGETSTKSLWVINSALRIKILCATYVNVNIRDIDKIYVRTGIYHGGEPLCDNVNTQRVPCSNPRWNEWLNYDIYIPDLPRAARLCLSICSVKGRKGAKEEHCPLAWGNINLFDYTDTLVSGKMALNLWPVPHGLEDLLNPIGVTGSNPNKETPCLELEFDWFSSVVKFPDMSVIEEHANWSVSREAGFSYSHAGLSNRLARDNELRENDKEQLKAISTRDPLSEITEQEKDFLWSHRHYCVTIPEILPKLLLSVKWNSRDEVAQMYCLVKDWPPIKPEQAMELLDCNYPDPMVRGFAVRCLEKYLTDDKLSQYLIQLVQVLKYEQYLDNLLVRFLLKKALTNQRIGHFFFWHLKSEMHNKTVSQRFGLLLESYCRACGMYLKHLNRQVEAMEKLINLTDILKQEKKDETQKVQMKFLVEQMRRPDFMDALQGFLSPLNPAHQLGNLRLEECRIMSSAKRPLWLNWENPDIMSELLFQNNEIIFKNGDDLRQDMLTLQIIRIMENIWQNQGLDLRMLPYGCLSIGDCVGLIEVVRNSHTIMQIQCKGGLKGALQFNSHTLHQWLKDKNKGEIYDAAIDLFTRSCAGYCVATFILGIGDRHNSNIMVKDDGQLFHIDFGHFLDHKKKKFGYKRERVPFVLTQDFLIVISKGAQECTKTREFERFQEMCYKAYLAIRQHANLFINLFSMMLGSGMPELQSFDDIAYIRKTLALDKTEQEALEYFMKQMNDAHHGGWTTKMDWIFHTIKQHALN

PI3Kβ = PI3Kβ (Homo sapiens, UniProt P42338); test: DiscoverX KdELECT; settings: Inhibitor binding constant Kd PI3Kβ, second PI3K column of Table S2
PI3Kβ, sequence (P42338 whole entry): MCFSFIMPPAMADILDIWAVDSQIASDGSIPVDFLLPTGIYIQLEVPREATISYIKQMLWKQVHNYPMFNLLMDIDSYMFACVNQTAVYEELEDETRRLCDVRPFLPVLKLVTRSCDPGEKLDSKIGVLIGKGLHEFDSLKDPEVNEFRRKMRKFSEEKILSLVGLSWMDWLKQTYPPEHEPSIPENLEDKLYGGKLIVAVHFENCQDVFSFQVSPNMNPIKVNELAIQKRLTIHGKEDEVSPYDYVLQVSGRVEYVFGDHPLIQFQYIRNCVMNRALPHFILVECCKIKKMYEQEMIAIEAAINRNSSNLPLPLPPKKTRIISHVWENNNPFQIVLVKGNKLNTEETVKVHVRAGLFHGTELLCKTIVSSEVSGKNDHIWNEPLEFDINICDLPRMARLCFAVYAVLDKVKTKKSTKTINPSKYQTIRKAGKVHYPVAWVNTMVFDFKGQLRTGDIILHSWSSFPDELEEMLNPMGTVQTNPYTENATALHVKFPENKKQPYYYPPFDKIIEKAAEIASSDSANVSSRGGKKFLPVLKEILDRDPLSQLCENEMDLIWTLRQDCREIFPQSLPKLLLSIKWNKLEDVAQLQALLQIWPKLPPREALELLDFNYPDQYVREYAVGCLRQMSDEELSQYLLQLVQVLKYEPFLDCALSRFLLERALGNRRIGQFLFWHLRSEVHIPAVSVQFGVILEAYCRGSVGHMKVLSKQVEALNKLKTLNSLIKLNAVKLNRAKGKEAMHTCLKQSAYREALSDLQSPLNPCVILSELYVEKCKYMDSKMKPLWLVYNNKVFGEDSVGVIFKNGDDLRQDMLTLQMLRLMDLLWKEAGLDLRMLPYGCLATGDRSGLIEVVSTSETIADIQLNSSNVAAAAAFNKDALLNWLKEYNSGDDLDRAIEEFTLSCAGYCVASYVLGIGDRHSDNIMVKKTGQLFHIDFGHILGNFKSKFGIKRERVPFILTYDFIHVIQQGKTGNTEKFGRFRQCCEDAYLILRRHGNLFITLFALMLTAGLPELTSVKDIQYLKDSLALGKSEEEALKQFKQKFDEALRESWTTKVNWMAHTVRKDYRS

PI3Kδ = biological target: T1, PI3Kδ (Homo sapiens, UniProt O00329); test: DiscoverX KdELECT; settings: Inhibitor binding constant Kd PI3Kδ, third PI3K column of Table S2
T1 sequence (O00329 1-1044): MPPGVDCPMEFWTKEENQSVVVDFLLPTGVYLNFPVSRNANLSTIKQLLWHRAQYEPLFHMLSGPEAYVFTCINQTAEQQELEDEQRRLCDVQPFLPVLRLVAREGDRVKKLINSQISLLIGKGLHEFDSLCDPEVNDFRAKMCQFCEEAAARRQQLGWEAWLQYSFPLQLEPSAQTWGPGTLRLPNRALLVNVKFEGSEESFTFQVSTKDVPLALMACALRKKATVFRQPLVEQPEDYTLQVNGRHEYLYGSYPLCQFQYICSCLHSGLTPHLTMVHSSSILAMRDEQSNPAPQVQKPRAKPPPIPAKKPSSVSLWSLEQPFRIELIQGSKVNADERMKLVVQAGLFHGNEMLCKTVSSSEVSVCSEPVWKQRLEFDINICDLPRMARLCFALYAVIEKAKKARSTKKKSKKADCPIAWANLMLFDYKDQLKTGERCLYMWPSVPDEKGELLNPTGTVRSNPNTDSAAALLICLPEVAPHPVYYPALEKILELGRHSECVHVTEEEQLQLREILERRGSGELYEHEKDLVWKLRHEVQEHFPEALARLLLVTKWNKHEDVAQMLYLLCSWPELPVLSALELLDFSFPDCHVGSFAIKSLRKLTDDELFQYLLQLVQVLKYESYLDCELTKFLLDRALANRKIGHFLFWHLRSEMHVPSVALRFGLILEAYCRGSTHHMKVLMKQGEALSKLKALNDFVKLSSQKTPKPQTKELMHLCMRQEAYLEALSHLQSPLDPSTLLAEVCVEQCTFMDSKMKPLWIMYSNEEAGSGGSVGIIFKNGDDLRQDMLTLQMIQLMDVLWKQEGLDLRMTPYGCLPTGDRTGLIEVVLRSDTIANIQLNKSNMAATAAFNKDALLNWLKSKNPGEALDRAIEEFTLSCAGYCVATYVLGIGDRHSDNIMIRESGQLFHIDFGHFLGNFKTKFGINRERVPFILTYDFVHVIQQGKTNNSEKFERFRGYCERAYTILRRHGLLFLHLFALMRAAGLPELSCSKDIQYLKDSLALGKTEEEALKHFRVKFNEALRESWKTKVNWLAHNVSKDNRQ

PI3Kγ = PI3Kγ (Homo sapiens, UniProt P48736); test: DiscoverX KdELECT; settings: Inhibitor binding constant Kd PI3Kγ, fourth PI3K column of Table S2
PI3Kγ, sequence (P48736 whole entry): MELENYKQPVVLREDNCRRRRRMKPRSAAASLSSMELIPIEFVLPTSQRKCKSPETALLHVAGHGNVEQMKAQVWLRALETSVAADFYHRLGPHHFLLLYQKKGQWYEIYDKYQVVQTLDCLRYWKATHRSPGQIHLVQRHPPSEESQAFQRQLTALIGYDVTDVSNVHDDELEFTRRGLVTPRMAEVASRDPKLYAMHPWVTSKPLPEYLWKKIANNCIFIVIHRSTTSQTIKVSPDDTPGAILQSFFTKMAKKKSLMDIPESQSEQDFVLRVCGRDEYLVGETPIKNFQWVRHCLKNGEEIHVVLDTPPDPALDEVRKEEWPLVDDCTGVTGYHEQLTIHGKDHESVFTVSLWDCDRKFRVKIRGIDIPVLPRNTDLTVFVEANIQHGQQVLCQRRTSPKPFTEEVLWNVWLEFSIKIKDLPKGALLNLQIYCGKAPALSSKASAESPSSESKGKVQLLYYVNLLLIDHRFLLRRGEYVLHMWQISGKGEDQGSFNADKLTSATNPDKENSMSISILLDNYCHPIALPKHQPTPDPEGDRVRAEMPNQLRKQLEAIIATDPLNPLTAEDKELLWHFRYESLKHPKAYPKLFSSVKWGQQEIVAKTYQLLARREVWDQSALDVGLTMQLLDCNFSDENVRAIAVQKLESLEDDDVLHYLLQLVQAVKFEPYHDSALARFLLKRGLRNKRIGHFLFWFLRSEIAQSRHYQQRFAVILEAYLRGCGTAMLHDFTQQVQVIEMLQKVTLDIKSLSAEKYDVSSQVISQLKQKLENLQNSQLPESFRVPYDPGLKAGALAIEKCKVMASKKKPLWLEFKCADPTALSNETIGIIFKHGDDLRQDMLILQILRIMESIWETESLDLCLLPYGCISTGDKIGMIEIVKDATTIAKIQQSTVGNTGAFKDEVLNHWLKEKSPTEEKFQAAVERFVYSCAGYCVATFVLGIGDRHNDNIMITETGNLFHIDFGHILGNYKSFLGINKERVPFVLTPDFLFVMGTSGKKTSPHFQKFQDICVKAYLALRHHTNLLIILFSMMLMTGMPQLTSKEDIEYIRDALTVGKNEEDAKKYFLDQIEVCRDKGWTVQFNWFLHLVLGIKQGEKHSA

[4] = test system: protein and lipid kinases (KINOMEScan panel); test: KINOMEScan panel selectivity; assay type: binding; settings: 10 μM
[5] = test system: CEREP BioPrint (P22-p) panel; test: CEREP BioPrint; assay type: binding; settings: 10 μM
[6] = Liver microsome stability; assay type: in vitro ADME; settings: rat, liver microsomes, pH 7.4
[7] = Liver microsome stability; assay type: in vitro ADME; settings: dog, liver microsomes, pH 7.4
[8] = Liver microsome stability; assay type: in vitro ADME; settings: human, liver microsomes, pH 7.4
OVCAR-3 xenograft [9] = test: OVCAR-3 xenograft model; assay type: in vivo, BALB/c nude mice; settings: 6.3 mg/kg p.o. QD
Pharmacokinetics in mice = settings: plasma, 10 mg/kg p.o.

| SMILES | GI50 (44 tumor cell lines [1]) [µM] | mean tumor size (OVCAR-3 xenograft [2]) [mm^3] | GI50 (66 cancer cell lines) [µM] | GI50 (44 tumor cell lines [3]) [µM] | Kd (PI3Kα) [µM] | Kd (PI3Kβ) [µM] | Kd (PI3Kδ) [µM] | Kd (PI3Kγ) [µM] | interference with protein kinase activities [4] | off-target interactions [5] | remaining at 0.5 h, 1 µM [6] [%] | remaining at 0.5 h, 1 µM [7] [%] | remaining at 0.5 h, 1 µM [8] [%] | body weight / tolerability (OVCAR-3 xenograft [9]) | tumor weight analysis vs vehicle (OVCAR-3 xenograft [9]; day 45) | Cl (Pharmacokinetics in mice) [L/h/kg] |
| --- | --- | --- | --- | --- | --- | --- | --- | --- | --- | --- | --- | --- | --- | --- | --- | --- |
| Nc1cc(C(F)(F)F)c(-c2nc(N3CCOCC3)nc(N3CCOCC3)n2)cn1 [PQR309 (1), 5-(4,6-Dimorpholino-1,3,5-triazin-2-yl)-4-(trifluoromethyl)pyridin-2-amine] | ~1 | 571 | – | – | – | – | – | – | – | – | – | – | – | – | – | – |
| Nc1ncc(-c2nc(N3CCOCC3)nc(N3CCOCC3)n2)c(C(F)F)n1 [PQR514 (4)] | – | – | 0.25 | 0.24 | < 0.007 | < 0.007 | < 0.007 | < 0.007 | negligible interference with protein kinase activities | With the exception of human PDE3A (phosphodiesterase 3A), no or very weak interactions were detected | 109 ± 10.7 | 92.7 ± 0.2 | 87.2 ± 3.5 | no significant body weight loss was observed | significantly inhibited tumor growth | 0.934 |
| C[C@H]1COCCN1c1nc(-c2cnc(N)cc2C(F)F)nc(N2CCOCC2)n1 [PQR530 (16), (S)-4-(Difluoromethyl)-5-(4-(3-methylmorpholino)-6-morpholino-1,3,5-triazin-2-yl)p yridin-2-amine] | ~0.4 | – | – | – | – | – | – | – | – | – | – | – | – | – | – | – |
